Source: patent publication US6797721B2, “Phorboxazole derivatives for treating cancer” (Parker Hughes Institute, priority 1999, dated 2004)

Tests used:
[1] = tested on: NALM-6 human B-lineage acute lymphoblastic leukemia cells; assay: MTT cytotoxicity assay, NALM-6; type: cell-based; details: NALM-6 (leukemia, ALL), 24-36 hours, read-out: IC50 [MTT]
Experimental: (§1) The cytotoxicity assay of synthetic Phorboxazole A and various derivative compounds against human tumor cells was performed using the MTT (3-[4,5-dimethylthiazol-2-yl]-2,5-diphenyl tetrazolium bromide) assay (Boehringer Mannheim Corp., Indianapolis, Ind.). Briefly, exponentially growing brain tumor cells were seeded into a 96-well plate at a density of 2.5×10^4 cells/well and incubated for 36 hours at 37° C. prior to drug exposure. On the day of treatment, culture medium was carefully aspirated from the wells and replaced with fresh medium containing the various phorboxazole A derivative compounds as well as the tyrosine kinase inhibitory isoflavone genistein (GEN) at concentrations ranging from 0.1 to 250 μM. Triplicate wells were used for each treatment.
(§2) Human glioblastoma cells U373 (brain cancer), human B-lineage acute lymphoblastic leukemia cells NALM-6, and human breast cancer cells BT-20 were obtained from American Type Culture Collection (Rockville, Md.) and maintained as a continuous cell line in Dulbecco's modified Eagles's medium supplemented with 10% fetal bovine serum and antibiotics.
(§3) The cells were incubated with the various compounds for 24-36 hours at 37° C. in a humidified 5% CO2 atmosphere. To each well, 10 μl of MTT (0.5 mg/ml final concentration) was added and the plates were incubated at 37° C. for 4 hours to allow MTT to form formazan crystals by reacting with metabolically active cells. The fonnazan crystals were solubilized overnight at 37° C. in a solution containing 10% SDS in 0.01 M HCl. The absorbance of each well was measured in a microplate reader (Labsystems) at 540 nm and a reference wavelength of 690 nm. To translate the OD540 values into the number of live cells in each well, the OD540 values were compared to those on standard OD540-versus-cell number curves generated for each cell line. The percent survival was calculated using the formula: [formula]
(§4) The IC50 values were calculated by non-linear regression analysis.

[2] = tested on: BT-20 human breast cancer cells; assay: MTT cytotoxicity assay, BT-20; type: cell-based; details: BT-20 (breast cancer), 24-36 hours, read-out: IC50 [MTT]
Experimental: as §1, §2, §3, §4

[3] = tested on: U373 human glioblastoma cells; assay: MTT cytotoxicity assay, U373; type: cell-based; details: U373 MG, U373 (brain tumor, glioblastoma), 24-36 hours, read-out: IC50 [MTT]
Experimental: as §1, §2, §3, §4

[4] = tested on: NALM-6 B-lineage ALL cells; assay: Clonogenic assay, NALM-6; type: cell-based, human; details: 7 days; for inhibition at 0.001 µM / inhibition at 0.01 µM / inhibition at 0.1 µM: Homo sapiens, 168 h, read-out: Inhibition of clonogenic growth
Experimental: (§5) The growth-inhibiting activity of the synthetic Phorboxazole A and the synthesized derivatives was tested in clonogenic assays. Cancer cells were treated with 1 nM, 10 nM, and 100 nM doses of synthetic Phorboxazole A or derivatives of phorboxazole A. Treated cells included U373 human glioblastoma cells, NALM-6, human B-lineage acute lymphoblastic leukemia cells, and BT-20 human breast cancer cells. The cancer cells were resuspended in clonogenic medium consisting of alpha-MEM supplemented with 0.9% methylcellulose, 30% fetal bovine serum, and 50 μM 2-mercaptoethanol. Cells were plated in duplicate Petri dishes at 100,000 cells/mL/dish and cultured in a humidified 5% CO2 incubator for 7 days. Cancer cell colonies were enumerated on a grid using an inverted phase microscope of high optical resolution. Results were expressed as % inhibition of clonogenic cells at a particular concentration of the test agent using the formula:
(§6) % Inhibition=(1−Mean # of colonies [Test]/Mean # of colonies [Control]×100.

[5] = tested on: BT-20 human breast cancer cells; assay: Clonogenic assay, BT-20; type: cell-based; details: 7 days; for inhibition at 0.001 µM / inhibition at 0.01 µM / inhibition at 0.1 µM: Homo sapiens, 168 h, read-out: Inhibition of clonogenic growth
Experimental: as §5, §6

[6] = tested on: U373 human glioblastoma cells; assay: Clonogenic assay, U373; type: cell-based; details: 7 days; for inhibition at 0.01 µM / inhibition at 0.1 µM: Homo sapiens, U373 MG, 168 h, read-out: Inhibition of clonogenic growth
Experimental: as §5, §6

[7] = tested on: human breast cancer cell line BT-20; assay: In situ detection of apoptosis (nick-end-labeling, confocal microscopy); type: cell-based; details: final concentration of 100 μM, 24 hours
Experimental: The synthetic Phorboxazole A and the synthetic analogs were also assayed for apoptosis-inducing activity. Assay for apoptosis was performed by the in situ nick-end-labeling method using an ApopTag in situ detection kit (Oncor, Gaithersburg, Md.) according to the manufacturer's reconmmendations. Immunofluorescence was used to examine the morphologic features of human breast cancer cell line BT-20 (American Type Culture Collection Rockville, Md.) treated with the novel phorboxazole A derivatives of the present invention.
Cells were trypsinized from rapidly growing tissue culture flasks and seeded onto sterile 22 mm^2 coverslips in 6-well culture plates. Cells on coverslips were returned to the incubator for 24 hours prior to treatment. The phorboxazole A derivatives were added to the cells from a stock solution made in DMSO to a final concentration of 100 μM. Final DMSO concentration were kept at 0.1% in both test samples and controls. Cells were returned to a 37° C. incubation for 24 hours before further processing. At 24 hours, coverslips were fixed in −20° C. methanol for 15 minutes followed by a 15 minute incubation in phosphate buffered saline +0.1% Triton X-100 (PBS-Tx). Coverslips were then incubated with a monoclonal antibody against α-tubulin (Sigma Chemical Co., St. Louis, Mo.) at a dilution of 1:1000 for 40 minutes in a humidified chamber at 37° C. Coverslips were washed for 15 minutes in PBS-Tx followed by a 40 minute incubation with goat anti-mouse IgG antibody conjugated to FITC (Amersham Corp., Arlington Heights, Ill.). The coverslips were again rinsed in PBS-Tx and incubated with 5 μM TOTO-3 (Molecular Probes, Eugene, Oreg.) for 20 minutes to label the nuclear DNA. Coverslips were immediately inverted onto slides in Vectashield (Vector Labs, Burlingame) to prevent photobleaching, sealed with nail varnish and stored at 4° C.
Slides were examined using a Bio-Rad MRC-1024 Laser Scanning Confocal Microscope mounted on a Nikon Eclipse E800 upright microscope with high numerical aperture objectives. […]

[8] = tested on: leukemia NALM-6 cells; assay: Mitochondrial transmembrane potential assay (DiIC1(5) staining); type: cell-based, human; details: 2.5 nM, 5 nM or 10 nM, 72 hours
Experimental: FIG. 2 are graphs showing the effect of synthetic phorboxazole A and phorboxazole A derivatives on the mitochondrial transmembrane potentials of leukemia NALM-6 cells.
Cells were incubated with 2.5 nM, 5 nM or 10 nM of phorboxazole A, 33-O-methyl-phorboxazole A or 45,46-dehydrobromo-phorboxazole A for 72 hours, stained with DiICl (5) to assess the mitochondrial membrane potential (Δψm) and then analyzed with a cell sorter equipped with a HeNe laser.

[9] = tested on: U373 glioblastoma spheroids; assay: Cell migration from glioblastoma spheroids; type: cell-based, human; details: U373 spheroids on fibronectin-coated coverslips; 48 hours; varied concentrations
Experimental: U373 glioblastoma spheroids of 200 to 400 micrometers in diameter were treated with synthetic Phorboxazole A, 33-O-Methyl-phorboxazole A, and 45,46-dehydrobromo-phorboxazole A in 0.1% DMSO at varied concentrations. Cells were incubated with the inhibitor or with control DMSO in the absence of inhibitor compound for two hours, and then transferred to fibronectin-coated coverslips. The spheroids were then incubated in DMEM containing […] at 37° C. for 48 hours.
In addition, multi-cellular U373 glioblastoma spheroids of 200-400 μm diameter were incubated with 500 nM, 250 nM, 125 nM, 62.5 nM and […] phorboxazoleA, 29-phorboxamide A, 18-methyl phorboxylate and 31-methyl phorboxylate in 0.1% DMSO or 0.1% DMSO alone for 2 hours and transferred to fibronectin-coated coverslips. The spheroids were then incubated in MEM containing respective compounds and cultured for 48 hours at 37° C. At the end of incubation, the spheroids were fixed and stained with Hema-3 solutions. The distance of migrated cells from spheroids was measured using a mircoscope and micrometer.

| SMILES | IC50 [1] | IC50 [2] | IC50 [3] | Mean Number Colonies/10^4 cells ([4]; 1 nM) | Mean Number Colonies/10^4 cells ([4]; 10 nM) | Mean Number Colonies/10^4 cells ([4]; 100 nM) | inhibition at 0.001 µM ([4]; 1 nM) | inhibition at 0.01 µM ([4]; 10 nM) | inhibition at 0.1 µM ([4]; 100 nM) | Mean Number Colonies/10^4 cells ([5]; 1 nM) | Mean Number Colonies/10^4 cells ([5]; 10 nM) | Mean Number Colonies/10^4 cells ([5]; 100 nM) | inhibition at 0.001 µM ([5]; 1 nM) | inhibition at 0.01 µM ([5]; 10 nM) | inhibition at 0.1 µM ([5]; 100 nM) | Mean Number Colonies/10^4 cells ([6]; 10 nM) | Mean Number Colonies/10^4 cells ([6]; 100 nM) | inhibition at 0.01 µM ([6]; 10 nM) | inhibition at 0.1 µM ([6]; 100 nM) | Apoptosis-inducing activity [7] | further results |
| --- | --- | --- | --- | --- | --- | --- | --- | --- | --- | --- | --- | --- | --- | --- | --- | --- | --- | --- | --- | --- | --- |
| C#CC[C@H](/C=C/C(C)=C/[C@@H](O)[C@H]1C[C@@H](OC)C[C@@](O)(Cc2nc(/C=C(\C)[C@@H]3O[C@@H]4C/C=C/c5nc(co5)[C@H]5C[C@H](O)C[C@@H](C[C@H]6CC(=C)C[C@H](C/C=C\C(=O)O[C@@H]([C@H]4C)[C@H]3C)O6)O5)co2)O1)OC [Compound 8, 45,46-Dehydrobromo-Phorboxazole A] | 4.8 nM | 12.6 nM | 27.4 nM | 2116 | 293 | 0 | 0% | 85.7% | > 99.9% | 1540 | 1062 | 0 | 0% | 30.3% | > 99.9% | 586 | 144 | 10.7% | 78.1% | apoptotic activity | Depolarized mitochondria (mitochondrial membrane potential) [8]: progressive increase in depolarized mitochondria; Inhibition of cell migration from the spheroid [9]: significantly inhibited cell migration |
| C=C1C[C@@H]2C[C@@H]3C[C@@H](O)C[C@@H](O3)c3coc(n3)/C=C/C[C@H]3O[C@@H](/C(C)=C/c4coc(C[C@]5(OC)C[C@H](OC)C[C@H]([C@H](O)/C=C(C)/C=C/[C@@H](C/C=C/Br)OC)O5)n4)[C@H](C)[C@@H](OC(=O)/C=C\C[C@@H](C1)O2)[C@H]3C [Compound 9, 33-O-methyl-Phorboxazole A] | 5.2 nM | 11.3 nM | 29.2 nM | 1760 | 422 | 0 | 14% | 79.4% | > 99.9% | 1824 | 1430 | 0 | 0% | 6.2% | > 99.9% | 578 | 0 | 11.9% | > 99.8% | apoptotic activity | Depolarized mitochondria (mitochondrial membrane potential) [8]: progressive increase in depolarized mitochondria; Inhibition of cell migration from the spheroid [9]: significantly inhibited cell migration |
